Results reported in patent US20100197962A1 (priority 2005, published 2010).
Values joined by “and” are separate entries in the source; they are usually repeats but may differ in a detail not shown here. Identical values can stand only once.

How the values were obtained:
[1] = system: locomotor hyperactivity induced by cocaine and morphine; assay: Locomotor hyperactivity (hypermotility) induced by cocaine and morphine, Videotrack total distance; assay type: in vivo, rats; conditions: for effect on the spontaneous motility of the animal: alone, neboglamine 30 mg/kg, glycine 300 mg/kg i.p.
Description: The motor activity was measured with a video camera and recorded using the Videotrack 512 system as described by Garofalo (J. Pharm. Pharmacol. 48: 1290-1297, 1996).
The locomotor activity was recorded for 15 minutes and the total distance covered (in cm) by the animal was recorded by the computer connected to the video camera.

[2] = system: locomotor hyperactivity, tolerance and dependency induced by morphine; conditions: mice; Shin et al. 2003; cited from earlier work
[3] = system: inverse tolerance induced by chronic treatment with morphine; assay: Inverse tolerance (increased sensitivity) induced by chronic treatment with morphine, locomotor activity
[4] = system: tolerance and abstinence crisis induced by chronic treatment with diazepam; assay: Elevated zero maze: tolerance and abstinence crisis induced by chronic treatment with diazepam; assay type: in vivo, rats
Description: The experiment was performed in an elevated zero maze in accordance with the procedure described by Shepard et al. (Psychopharmacology 116: 56-64, 1994) with minor changes.
The rat, placed in one of the closed quadrants, had free access to all 4 of the quadrants (2 open and 2 closed) for a period of 5 minutes. A compound with anxiolytic activity produces a percentage increase in the time spent in the free quadrants.
In the acute studies, the compounds were administered via the s.c. route 30 minutes before the experiment, whereas in the tolerance and “withdrawal” experiments, they were administered via the s.c. route twice a day for 7 days and then retested 40 hours after the end of the chronic treatment.

memory and learning = conditions: various animal models; Garofalo et al. 1996; cited from earlier work
[5] = substance alone with physiological saline, neboglamine 30 or glycine 300 mg/kg i.p., cocaine 20 or morphine 10 mg/kg s.c., recorded 15 min
[6] = drug = morphine 10 mg/kg s.c., neboglamine 30 or glycine 300 mg/kg i.p. 30 min before
[7] = neboglamine 30 or glycine 300 mg/kg i.p. 30 min before morphine 10 mg/kg s.c.
[8] = neboglamine 30 or glycine 300 mg/kg i.p. 30 min before morphine 10 mg/kg s.c., recorded 15 min
[9] = chronic morphine 10 mg/kg s.c. x 7 days
[10] = acute, s.c. 30 min before, diazepam 5 mg/kg, neboglamine 30 mg/kg
[11] = acute, s.c. 30 min before, diazepam 5 mg/kg, neboglamine 30 mg/kg, 5 min test
[12] = withdrawal (D-W): diazepam for 7 days, retested 40 hours later with physiological saline
[13] = neboglamine 30 mg/kg s.c. x 2 (x7 days) + 30 co-administered with chronic diazepam (D-C) + 5 (D), tolerance
[14] = withdrawal: diazepam and neboglamine for 7 days, retested 40 hours later with physiological saline
[15] = neboglamine 30 mg/kg i.p. 30 min before morphine 10 mg/kg s.c., x 7 days

COC(=O)[C@H]1[C@@H](OC(=O)c2ccccc2)C[C@@H]2CC[C@H]1N2C [Cocaine, cocaine, reference compound]
% increase vs. physiological saline [1, 5]: 75.7%
Total distance (cm) [1, 5]: 5800 cm

NCC(=O)O [Glycine, glycine, reference compound]
effect on the spontaneous motility of the animal [1]: do not significantly alter
% inhibition vs. the drug (D) [1, 6]: 52.5%
% inhibition vs. the drug (D) ([1]; drug = morphine 10 mg/kg s.c., neboglamine 30 or glycine 300 mg/kg i.p. 30 min before, listed as G): 52.5^(2) %
% increase vs. physiological saline [1, 7]: 28.8%
Total distance (cm) [1, 8]: 4250 cm
Total distance (cm) [1, 5]: 2900 cm
inhibition of morphine-induced locomotor hyperactivity, tolerance and dependency [2]: capable of inhibiting the locomotor hyperactivity, tolerance and dependency induced by morphine

CN1CC[C@]23c4c5ccc(O)c4O[C@H]2[C@@H](O)C=C[C@H]3[C@H]1C5 [Morphine, morphine, reference compound]
% increase vs. physiological saline [3, 9]: 128.6%
Total distance (cm) [3, 9]: 6400 cm
increase in the motor activity by chronic treatment compared with the acute effect of the drug ([3]; chronic vs acute morphine 10 mg/kg s.c.): about 50%
% increase vs. physiological saline [1, 5]: 60.6%
Total distance (cm) [1, 5]: 5300 cm

CN1C(=O)CN=C(c2ccccc2)c2cc(Cl)ccc21 [diazepam, reference compound]
% effect vs. controls (saline) [4, 10]: 262.5%
Time (seconds) spent in the open quadrants [4, 11]: 105 s
Time (seconds) spent in the open quadrants ([4]; chronic diazepam (D-C) 5 mg/kg s.c. x 2 (x7 days) + 5 (D), tolerance): 58 s
% effect vs. controls (saline) ([4]; chronic diazepam (D-C) 5 mg/kg s.c. x 2 (x7 days) + 5 (D), tolerance, 5 mg/kg): 145%
% effect vs. controls (saline) [4, 12]: 37.5%
Time (seconds) spent in the open quadrants [4, 12]: 15 s

(S)-4-amino-N-(4,4-dimethylcyclohexyl)glutamic acid [Neboglamine]
% effect vs. controls (saline) [4, 10]: 127%
Time (seconds) spent in the open quadrants [4, 11]: 51 s
% effect vs. controls (saline) ([4]; acute, s.c. 30 min before, diazepam 5 mg/kg, neboglamine 30 mg/kg, listed as neboglamine): 127.0%
% effect vs. controls (saline) [4, 13]: 192.5%
Time (seconds) spent in the open quadrants [4, 13]: 77 s
% effect vs. controls (saline) [4, 14]: 110.0%
Time (seconds) spent in the open quadrants [4, 14]: 44 s
% effect vs. controls (saline) ([4]; withdrawal: diazepam and neboglamine for 7 days, retested 40 hours later with physiological saline, listed as neboglamine): 110%
promoting memory and learning (memory and learning): advantageous properties of promoting memory and learning
% increase vs. physiological saline [3, 15]: 37.5%
% inhibition of the hypersensitivity of morphine [3, 15]: 70.8% and 70.8^(1) %
Total distance (cm) [3, 15]: 3850 cm
% increase vs. physiological saline ([1]; 30 mg/kg i.p. 30 min before cocaine 20 mg/kg s.c.): 9.1%
Total distance (cm) ([1]; 30 mg/kg i.p. 30 min before cocaine 20 mg/kg s.c., recorded 15 min): 3600 cm
effect on the spontaneous motility of the animal [1]: do not significantly alter
% inhibition vs. the drug (D) ([1]; drug = cocaine 20 mg/kg s.c., 30 mg/kg i.p. 30 min before): 88%
% inhibition vs. the drug (D) ([1]; drug = cocaine 20 mg/kg s.c., 30 mg/kg i.p. 30 min before, listed as N): 88.0^(1) %
% inhibition vs. the drug (D) [1, 6]: 77.5%
% inhibition vs. the drug (D) ([1]; drug = morphine 10 mg/kg s.c., neboglamine 30 or glycine 300 mg/kg i.p. 30 min before, listed as N): 77.5^(1) %
% increase vs. physiological saline [1, 7]: 13.6%
Total distance (cm) [1, 8]: 3750 cm
Total distance (cm) [1, 5]: 3150 cm
